# Measured values: US8497240B2 (priority 2006, dated 2013)
# “And” between values parts separate entries of the source, which are not always exact repeats. Identical values can stand only once. Like-named read-outs stand apart in the source and are kept apart here.
# Key:
# human GIP receptor = target: T1, human GIP receptor (Homo sapiens, UniProt P48546); experiment: biochemical; format: binding
# T1 construct: expressed in transfected cells; host or cells: HEK293 (HEK-GIPR), membranes
# T1 sequence (P48546 22-466): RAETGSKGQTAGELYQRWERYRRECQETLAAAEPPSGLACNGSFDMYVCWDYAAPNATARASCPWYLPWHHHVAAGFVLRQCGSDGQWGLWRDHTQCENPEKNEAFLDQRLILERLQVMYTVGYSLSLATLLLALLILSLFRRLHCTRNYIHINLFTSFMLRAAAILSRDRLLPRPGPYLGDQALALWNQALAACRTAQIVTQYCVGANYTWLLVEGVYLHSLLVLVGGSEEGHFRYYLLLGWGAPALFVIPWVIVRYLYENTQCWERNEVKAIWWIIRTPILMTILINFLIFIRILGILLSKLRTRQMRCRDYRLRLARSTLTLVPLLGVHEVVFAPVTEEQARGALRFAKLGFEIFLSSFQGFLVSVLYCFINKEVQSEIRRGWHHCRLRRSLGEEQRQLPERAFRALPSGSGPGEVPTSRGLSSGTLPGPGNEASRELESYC
# [1] = format: in vivo, NIH/Swiss mice; settings: 80 nmol/kg, AUC240
# Experimental: (§1) In FIG. 3A, bars represent mean±sd, n=6-10. […] Gavage (1.5 g/kg) was given at t=0, Sample was taken at t=30 min. […] In FIG. 3B, points represent mean±sem, n=8-15.
# Points represent mean±sem.
# [2] = IVGTT duration of action assay (single SC injection before glucose); format: in vivo, rat; settings: compared with 0601GIP3794 (794), dosed at −120 min
# Experimental: To determine a duration of action using the IVGTT assay, the sample was injected SC as a single injection at one time point indicated (e.g., t=−240, −120, −60 or −30) prior to administration of glucose. IV glucose was given at t=0.
# [3] = format: in vivo, NIH/Swiss mice; settings: 30 nmol/kg
# Experimental: as §1
# Peptide was injected IP at t=−5 minutes into 4-hour fasted NIH/Swiss female mice. […] In FIG. 17 points represent mean+/−sem. […] Samples were taken at t=60, t=120 and t=180.
# [4] = read-out: (% Inh 10 nm, GIP-LF Assay)
# [5] = read-out: GIP RBA (% Inh 10 nM)
SMILES,inhibition at 0.01 µM (human GIP receptor; [4]),inhibition at 0.01 µM (human GIP receptor; [5]),Basal Gluc. Low. 80 nmol/Kg [1],Duration In The Rat IVGTT Assay [2],OGTT/GL (%) [3]
CC[C@H](C)[C@H](NC(=O)[C@H](CO)NC(=O)[C@H](Cc1ccc(O)cc1)NC(=O)[C@H](CC(=O)O)NC(=O)[C@H](CO)NC(=O)[C@@H](NC(=O)[C@H](Cc1ccccc1)NC(=O)[C@@H](NC(=O)CNC(=O)[C@H](CCC(=O)O)NC(=O)[C@@H](C)NC(=O)[C@@H](N)Cc1ccc(O)cc1)[C@@H](C)O)[C@@H](C)CC)C(=O)N[C@@H](C)C(=O)N[C@@H](CCSC)C(=O)N[C@@H](CC(=O)O)C(=O)N[C@@H](CCCCN)C(=O)N[C@H](C(=O)N[C@@H](Cc1c[nH]cn1)C(=O)N[C@@H](CCC(N)=O)C(=O)N[C@@H](CCC(N)=O)C(=O)N[C@@H](CC(=O)O)C(=O)N[C@@H](Cc1ccccc1)C(=O)N[C@H](C(=O)N[C@@H](CC(N)=O)C(=O)N[C@@H](Cc1c[nH]c2ccccc12)C(=O)N[C@@H](CC(C)C)C(=O)N[C@@H](CC(C)C)C(=O)N[C@@H](C)C(=O)N[C@@H](CCC(N)=O)C(=O)N[C@@H](CCCCN)C(=O)N1CCC[C@H]1C(=O)N[C@@H](CO)C(=O)N1CCC[C@H]1C(=O)N[C@@H](CCCCN)C(=O)N[C@@H](CCCCN)C(=O)N[C@H](C(=O)N[C@@H](CCCNC(=N)N)C(=O)N[C@@H](Cc1ccc(O)cc1)C(=O)N[C@@H](CO)C(N)=O)[C@@H](C)CC)C(C)C)[C@@H](C)CC [Compound 0601GIP4823],94.1%,94.1%,"−23%,",<794@ −120 min,–
CC[C@H](C)[C@H](NC(=O)[C@H](CO)NC(=O)[C@H](Cc1ccc(O)cc1)NC(=O)[C@H](CC(=O)O)NC(=O)[C@H](CO)NC(=O)[C@@H](NC(=O)[C@H](Cc1ccccc1)NC(=O)[C@@H](NC(=O)CNC(=O)[C@H](CCC(=O)O)NC(=O)[C@@H](C)NC(=O)[C@@H](N)Cc1ccc(O)cc1)[C@@H](C)O)[C@@H](C)CC)C(=O)N[C@@H](C)C(=O)N[C@@H](CCSC)C(=O)N[C@@H](CC(=O)O)C(=O)N[C@@H](CCCCN)C(=O)N[C@H](C(=O)N[C@@H](Cc1c[nH]cn1)C(=O)N[C@@H](CCC(N)=O)C(=O)N[C@@H](CCC(N)=O)C(=O)N[C@@H](CC(=O)O)C(=O)N[C@@H](Cc1ccccc1)C(=O)N[C@H](C(=O)N[C@@H](CC(N)=O)C(=O)N[C@@H](Cc1c[nH]c2ccccc12)C(=O)N[C@@H](CC(C)C)C(=O)N[C@@H](CC(C)C)C(=O)N[C@@H](C)C(=O)N[C@@H](CCC(N)=O)C(=O)N[C@@H](CCCCN)C(=O)N1CCC[C@H]1C(=O)N[C@@H](CCCCN)C(=O)N[C@@H](CCC(N)=O)C(=O)N[C@H](C(=O)N[C@@H](CCCNC(=N)N)C(=O)N[C@@H](Cc1ccc(O)cc1)C(=O)N[C@@H](CO)C(N)=O)[C@@H](C)CC)C(C)C)[C@@H](C)CC [Compound 0601GIP4854],93.5%,–,–,<794@ −120 min,"−14, %"
CC[C@H](C)[C@H](NC(=O)[C@H](CO)NC(=O)[C@H](Cc1ccc(O)cc1)NC(=O)[C@H](CC(=O)O)NC(=O)[C@H](CO)NC(=O)[C@@H](NC(=O)[C@H](Cc1ccccc1)NC(=O)[C@@H](NC(=O)CNC(=O)[C@H](CCC(=O)O)NC(=O)[C@@H](C)NC(=O)[C@@H](N)Cc1ccc(O)cc1)[C@@H](C)O)[C@@H](C)CC)C(=O)N[C@@H](C)C(=O)N[C@@H](CCSC)C(=O)N[C@@H](CC(=O)O)C(=O)N[C@@H](CCCCN)C(=O)N[C@H](C(=O)N[C@@H](Cc1c[nH]cn1)C(=O)N[C@@H](CCC(N)=O)C(=O)N[C@@H](CCC(N)=O)C(=O)N[C@@H](CC(=O)O)C(=O)N[C@@H](Cc1ccccc1)C(=O)N[C@H](C(=O)N[C@@H](CC(N)=O)C(=O)N[C@@H](Cc1c[nH]c2ccccc12)C(=O)N[C@@H](CC(C)C)C(=O)N[C@@H](CC(C)C)C(=O)N[C@@H](C)C(=O)N[C@@H](CCC(N)=O)C(=O)N[C@@H](CCCCN)C(=O)N1CCC[C@H]1C(=O)N[C@@H](CCCCN)C(=O)N[C@@H](CCCCN)C(=O)N[C@@H](C)C(=O)N[C@@H](CCCNC(=N)N)C(=O)N[C@@H](Cc1ccc(O)cc1)C(=O)N[C@@H](CO)C(N)=O)C(C)C)[C@@H](C)CC [Compound 0601GIP4856],83.7%,–,"−3%,",<794@ −120 min,"−29, %"
CC[C@H](C)[C@H](NC(=O)[C@H](CO)NC(=O)[C@H](Cc1ccc(O)cc1)NC(=O)[C@H](CC(=O)O)NC(=O)[C@H](CO)NC(=O)[C@@H](NC(=O)[C@H](Cc1ccccc1)NC(=O)[C@@H](NC(=O)CNC(=O)[C@H](CCC(=O)O)NC(=O)[C@@H](C)NC(=O)[C@@H](N)Cc1ccc(O)cc1)[C@@H](C)O)[C@@H](C)CC)C(=O)N[C@@H](C)C(=O)N[C@@H](CCSC)C(=O)N[C@@H](CC(=O)O)C(=O)N[C@@H](CCCCN)C(=O)N[C@H](C(=O)N[C@@H](Cc1c[nH]cn1)C(=O)N[C@@H](CCC(N)=O)C(=O)N[C@@H](CCC(N)=O)C(=O)N[C@@H](CC(=O)O)C(=O)N[C@@H](Cc1ccccc1)C(=O)N[C@H](C(=O)N[C@@H](CC(N)=O)C(=O)N[C@@H](Cc1c[nH]c2ccccc12)C(=O)N[C@@H](CC(C)C)C(=O)N[C@@H](CC(C)C)C(=O)N[C@@H](C)C(=O)N[C@@H](CCC(N)=O)C(=O)N[C@@H](CCCCN)C(=O)N1CCC[C@H]1C(=O)N[C@@H](CCCCN)C(=O)N[C@@H](CO)C(=O)N[C@@H](C)C(=O)N[C@@H](CCCNC(=N)N)C(=O)N1CCC[C@H]1C(=O)N[C@@H](CO)C(N)=O)C(C)C)[C@@H](C)CC [Compound 0601GIP4821],93.5%,93.5%,"−5%,",<794@ −120 min,"−28, %"
CC[C@H](C)[C@H](NC(=O)[C@H](CO)NC(=O)[C@H](Cc1ccc(O)cc1)NC(=O)[C@H](CC(=O)O)NC(=O)[C@H](CO)NC(=O)[C@@H](NC(=O)[C@H](Cc1ccccc1)NC(=O)[C@@H](NC(=O)CNC(=O)[C@H](CCC(=O)O)NC(=O)[C@@H](C)NC(=O)[C@@H](N)Cc1ccc(O)cc1)[C@@H](C)O)[C@@H](C)CC)C(=O)N[C@@H](C)C(=O)N[C@@H](CCSC)C(=O)N[C@@H](CC(=O)O)C(=O)N[C@@H](CCCCN)C(=O)N[C@H](C(=O)N[C@@H](Cc1c[nH]cn1)C(=O)N[C@@H](CCC(N)=O)C(=O)N[C@@H](CCC(N)=O)C(=O)N[C@@H](CC(=O)O)C(=O)N[C@@H](Cc1ccccc1)C(=O)N[C@H](C(=O)N[C@@H](CC(N)=O)C(=O)N[C@@H](Cc1c[nH]c2ccccc12)C(=O)N[C@@H](CC(C)C)C(=O)N[C@@H](CC(C)C)C(=O)N[C@@H](C)C(=O)N[C@@H](CCC(N)=O)C(=O)N[C@@H](CCCCN)C(=O)N1CCC[C@H]1C(=O)N[C@@H](CCC(N)=O)C(=O)N[C@@H](CCCCN)C(=O)N[C@H](C(=O)N[C@@H](CCCNC(=N)N)C(=O)N[C@@H](Cc1ccc(O)cc1)C(=O)N[C@@H](CO)C(N)=O)[C@@H](C)CC)C(C)C)[C@@H](C)CC [Compound 0601GIP4853],91%,–,–,<794@ −120 min,"−25, %"
CC[C@H](C)[C@H](NC(=O)[C@H](CO)NC(=O)[C@H](Cc1ccc(O)cc1)NC(=O)[C@H](CC(=O)O)NC(=O)[C@H](CO)NC(=O)[C@@H](NC(=O)[C@H](Cc1ccccc1)NC(=O)[C@@H](NC(=O)CNC(=O)[C@H](CCC(=O)O)NC(=O)[C@@H](C)NC(=O)[C@@H](N)Cc1ccc(O)cc1)[C@@H](C)O)[C@@H](C)CC)C(=O)N[C@@H](C)C(=O)N[C@@H](CC(C)C)C(=O)N[C@@H](CC(=O)O)C(=O)N[C@@H](CCCCN)C(=O)N[C@H](C(=O)N[C@@H](Cc1c[nH]cn1)C(=O)N[C@@H](CCC(N)=O)C(=O)N[C@@H](CCC(N)=O)C(=O)N[C@@H](CC(=O)O)C(=O)N[C@@H](Cc1ccccc1)C(=O)N[C@H](C(=O)N[C@@H](CC(N)=O)C(=O)N[C@@H](Cc1c[nH]c2ccccc12)C(=O)N[C@@H](CC(C)C)C(=O)N[C@@H](CC(C)C)C(=O)N[C@@H](C)C(=O)N[C@@H](CCC(N)=O)C(=O)N[C@@H](CCCCN)C(=O)N1CCC[C@H]1C(=O)N[C@@H](CCCCN)C(=O)N[C@@H](CCCCN)C(=O)N[C@H](C(=O)N[C@@H](CCCNC(=N)N)C(=O)N[C@@H](Cc1ccc(O)cc1)C(=O)N[C@@H](CO)C(N)=O)[C@@H](C)CC)C(C)C)[C@@H](C)CC [0601GIP4807],96.1%,96.1%,–,<794 @ −120 min,"−27, % and −27, 30%"
CC[C@H](C)[C@H](NC(=O)[C@H](CCCCN)NC(=O)[C@H](CC(=O)O)NC(=O)[C@H](CC(C)C)NC(=O)[C@H](C)NC(=O)[C@@H](NC(=O)[C@H](CO)NC(=O)[C@H](Cc1ccc(O)cc1)NC(=O)[C@H](CC(=O)O)NC(=O)[C@H](CO)NC(=O)[C@@H](NC(=O)[C@H](Cc1ccccc1)NC(=O)[C@@H](NC(=O)CNC(=O)[C@H](CCC(=O)O)NC(=O)[C@@H](C)NC(=O)[C@H](Cc1ccc(O)cc1)NC(=O)[C@@H](N)CC(C)C)[C@@H](C)O)[C@@H](C)CC)[C@@H](C)CC)C(=O)N[C@@H](C)C(=O)N[C@@H](CCC(N)=O)C(=O)N[C@@H](CCC(N)=O)C(=O)N[C@@H](CCC(=O)O)C(=O)N[C@@H](Cc1ccccc1)C(=O)N[C@H](C(=O)N[C@@H](CC(N)=O)C(=O)N[C@@H](Cc1c[nH]c2ccccc12)C(=O)N[C@@H](CC(C)C)C(=O)N[C@@H](CC(C)C)C(=O)N[C@@H](C)C(=O)N[C@@H](CCC(N)=O)C(=O)N[C@@H](CCCCN)C(=O)N1CCC[C@H]1C(=O)N[C@@H](CCCCN)C(=O)N[C@@H](CCCCN)C(=O)N[C@H](C(=O)N[C@@H](CCCNC(=N)N)C(=O)N[C@@H](Cc1ccc(O)cc1)C(=O)N[C@@H](CO)C(N)=O)[C@@H](C)CC)C(C)C [0601GIP4802],87.3%,87.3%,–,<794 @ −120 min,"−28, %"
